From ChEMBL document CHEMBL3779772, “Synthesis of tetracyclic iminosugars fused benzo[e][1,3]thiazin-4-one and their HIV-RT inhibitory activity” (Bioorg Med Chem Lett, 2016)

Biological target: Human immunodeficiency virus type 1 reverse transcriptase (Human immunodeficiency virus 1, UniProt Q72547)
Assay: Inhibition of HIV1 reverse transcriptase using DIG-labeled dNTPs as substrate after 1 hr by ELISA

Row | SMILES | IC50 [µM]
1 | O=C1CN2C(=O)c3ccccc3S[C@H]2[C@H]2[C@H](O)[C@H](O)CN12 | 8.21
2 | O=C1CN2C(=O)c3ccccc3S[C@@H]2[C@H]2[C@H](O)[C@H](O)CN12 | 0.82

Results, then the compound that gave them:

Row | IC50 [µM] | SMILES
3 | 9.65 | C[C@H]1C(=O)N2C[C@@H](O)[C@@H](O)[C@@H]2[C@@H]2Sc3ccccc3C(=O)N12
4 | 2.01 | C[C@@H]1C(=O)N2C[C@@H](O)[C@@H](O)[C@@H]2[C@@H]2Sc3ccccc3C(=O)N12
5 | 4.21 | C[C@H]1C(=O)N2C[C@@H](O)[C@@H](O)[C@@H]2[C@H]2Sc3ccccc3C(=O)N21
